Data on eight compounds can be found in patent US11040031B2, “Pyrazole derivatives as MALT1 inhibitors” (Janssen Pharmaceutica NV, priority 2018, dated 2021).

Where two headings read alike, the source gives them in different places.

Assay [1] has as its system Secretion of IL10 by OCI-LY3 ABC-DLBCL cells. As to the kind of experiment: Human IL10 Mesoscale assay (OCI-LY3). Type of assay: cell-based. Particulars: OCI-LY3 cells, 24 h incubation, supernatant, MSD V-Plex, read-out: Human IL10 Mesoscale assay (OCI-LY3). The method in brief: (§1)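 TMD8 or OCI-LY3 ABC-DLBCL cells incubated with compound 24 h at 37° C without beta-mercaptoethanol. Secreted IL6 and IL10 in supernatant quantified by MSD electrochemiluminescence immunoassay; DMSO wells define maximum signal.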

Assay [2] has as its system Secretion of IL6 by OCI-LY3 ABC-DLBCL cells. Briefly: Human IL6 Mesoscale assay (OCI-LY3). Type of assay: cell-based. Particulars: OCI-LY3 cells, 24 h incubation, supernatant, MSD V-Plex, read-out: Human IL6 Mesoscale assay (OCI-LY3). The method in brief:
as §1

Assay [3] has as its system Secretion of IL6 by TMD8 ABC-DLBCL cells. Briefly: Human IL6 Mesoscale assay (TMD-8). Format: cell-based. Particulars: read-out: Human IL6 Mesoscale assay (TMD-8). As to the method:
NFKB signaling regulates the secretion of multiple cytokines, including IL6 and IL10. Secretion of the cytokines IL6 and IL10 by TMD8 or OCI-LY3 ABC-DLBCL cells was measured using a mesoscale assay.
Cell passage number should not exceed 30. Cells should be kept between 0.5-2.5 million cells per mL during culturing and cells should be supplemented every 2-3 days with fresh 50 µM beta-mercaptoenthanol. No beta-mercaptoethanol was used during the mesoscale assay.
DMSO control wells were used to determine the maximum signal (High Control (HC)). […] Compounds and cells were incubated for 24 h at 37° C. and 5% CO2 (assay volume is 150 μL). After 24 h of incubation 50 μL of the supernatant was transferred to a MSD plate (V-Plex Proinflammation Panel 1 (human) kit, Mesoscale (MSD)) and incubated for 2 h with vigorous shaking (600 rpm) at room temperature. Following incubation, plates were washed 3× with PBS+0.05% Tween-20 and 25 μL detection antibody solution (IL6 & IL10 antibodies in diluent 3 (MSD)) was added per well followed by 2 h of incubation with vigorous shaking (600 rpm) at room temperature. After 3× washes with PBS+0.05% Tween-20, plates were incubated with 150 μL 2× Read Buffer T and read on SECTOR imager.

Assay [4] deals with Secretion of IL10 by TMD8 ABC-DLBCL cells. Briefly: Human IL10 Mesoscale assay (TMD-8). Particulars: read-out: Human IL10 Mesoscale assay (TMD-8). Format: cell-based. The gist of the method:
as §1

Assay [5] deals with OCI-Ly3 ABC-DLBCL cell line. As to the kind of experiment: 4-day proliferation assay OCI-Ly3. Particulars: Homo sapiens, read-out: Anti-proliferation: OCI-LY-3 IC50. Format: cell-based. The method in brief: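 10,000 OCI-Ly3 cells per well cultured 4 days at 37° C., 5% CO2 without beta-mercaptoethanol, at densities giving linear growth. Viability read by CellTiterGLO luminescence after 10 min at room temperature.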

Assay [6] addresses T1, full-length MALT1 protein (Strep-MALT1(1-824)-His) (Homo sapiens, UniProt Q9UDY8).
T1 sequence (Q9UDY8 1-824): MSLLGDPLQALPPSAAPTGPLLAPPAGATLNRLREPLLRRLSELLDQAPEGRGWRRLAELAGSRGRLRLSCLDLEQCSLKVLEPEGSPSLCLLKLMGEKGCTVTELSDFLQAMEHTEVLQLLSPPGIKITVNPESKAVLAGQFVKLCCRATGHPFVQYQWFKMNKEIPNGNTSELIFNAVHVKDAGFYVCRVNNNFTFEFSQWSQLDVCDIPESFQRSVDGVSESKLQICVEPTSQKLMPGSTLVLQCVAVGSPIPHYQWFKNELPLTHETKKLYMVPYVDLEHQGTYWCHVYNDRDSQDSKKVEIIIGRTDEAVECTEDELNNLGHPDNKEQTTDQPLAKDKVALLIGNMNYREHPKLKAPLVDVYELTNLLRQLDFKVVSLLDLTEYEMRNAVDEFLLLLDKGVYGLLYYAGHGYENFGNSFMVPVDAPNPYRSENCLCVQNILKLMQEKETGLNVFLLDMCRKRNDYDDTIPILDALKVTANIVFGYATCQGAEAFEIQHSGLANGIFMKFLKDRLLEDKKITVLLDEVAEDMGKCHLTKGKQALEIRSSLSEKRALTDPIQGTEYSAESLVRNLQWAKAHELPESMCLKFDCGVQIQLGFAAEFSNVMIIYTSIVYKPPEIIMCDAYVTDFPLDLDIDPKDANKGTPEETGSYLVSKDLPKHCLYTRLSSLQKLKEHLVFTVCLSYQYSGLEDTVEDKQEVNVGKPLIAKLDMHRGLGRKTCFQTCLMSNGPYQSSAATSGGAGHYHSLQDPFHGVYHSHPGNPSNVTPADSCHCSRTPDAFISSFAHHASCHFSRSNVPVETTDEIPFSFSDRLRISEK
As to the kind of experiment: biochemical.

Where [7] appears, read: TMD8 cells, 24 h incubation, supernatant, MSD V-Plex.
[8] abbreviates: 96 h, 10,000 OCI-Ly3 cells per well, 4 days, CellTiterGLO.

With `Cc1cc(F)ccc1-n1ncc(C(=O)Nc2cnc(-n3nccn3)c(Cl)c2)c1C(F)(F)F` [Cpd 1, N-(5-Chloro-6-(2H-1,2,3-triazol-2-yl)pyridin-3-yl)-1-(4-fluoro-2-methylphenyl)-5-(trifluoromethyl)-1H-pyrazole-4-carboxamide], the IC50 in assay [1] came out at 58 nM; in assay [2], 83 nM; in assay [3] (setting [7]) it was 79 nM; in assay [4] (setting [7]), 85 nM; in assay [5] (setting [8]), 1350 nM; in assay [6], 117 nM.
As for `N#Cc1cc(NC(=O)c2cnn(-c3ccnc4c3OCO4)c2C(F)(F)F)cnc1-n1nccn1` [Cpd 53, 1-([1,3]dioxolo[4,5-b]pyridin-7-yl)-N-(5-cyano-6-(2H-1,2,3-triazol-2-yl)pyridin-3-yl)-5-(trifluoromethyl)-1H-pyrazole-4-carboxamide], the IC50 in assay [1] is 145 nM; in assay [2], 166 nM; in assay [3] (setting [7]) it was 89 nM; in assay [4] (setting [7]), 209 nM; in assay [5] (setting [8]), 1860 nM; in assay [6] it was 74 nM.
With `N#Cc1cc(NC(=O)c2cnn(-c3cccc4c3OCO4)c2C(F)(F)F)cnc1-n1nccn1` [Cpd 59, 1-(benzo[d][1,3]dioxol-4-yl)-N-(5-cyano-6-(2H-1,2,3-triazol-2-yl)pyridin-3-yl)-5-(trifluoromethyl)-1H-pyrazole-4-carboxamide], the IC50 was found to be 35 nM in assay [3] (TMD8, 24 h); 48 nM in assay [4] (TMD8, 24 h); 468 nM in assay [5] (OCI-Ly3, 96 h); 41 nM in assay [6].
Taken in the same sequence, the figures for `Cc1cc(-n2ncc(C(=O)Nc3cnc(-n4nccn4)c(Cl)c3)c2C(F)(F)F)c(Cl)cn1` [Cpd 68, 1-(5-chloro-2-methylpyridin-4-yl)-N-(5-chloro-6-(2H-1,2,3-triazol-2-yl)pyridin-3-yl)-5-(trifluoromethyl)-1H-pyrazole-4-carboxamide] were 5500 nM, 7080 nM, 7080 nM and 427 nM.
Regarding `Cc1nccc(-n2ncc(C(=O)Nc3cnc(-n4nccn4)c(Cl)c3)c2C(F)(F)F)c1Cl` [Cpd 69, 1-(3-chloro-2-methylpyridin-4-yl)-N-(5-chloro-6-(2H-1,2,3-triazol-2-yl)pyridin-3-yl)-5-(trifluoromethyl)-1H-pyrazole-4-carboxamide], the IC50 in assay [3] (setting [7]) turned out to be 2290 nM; in assay [4] (setting [7]), 3240 nM; in assay [5] (setting [8]), 2090 nM; in assay [6], 257 nM.
For the compound `Cc1cc(-n2ncc(C(=O)Nc3cnc(-n4nccn4)c(C#N)c3)c2C(F)(F)F)c(Cl)cn1` [Cpd 70, 1-(5-chloro-2-methylpyridin-4-yl)-N-(5-cyano-6-(2H-1,2,3-triazol-2-yl)pyridin-3-yl)-5-(trifluoromethyl)-1H-pyrazole-4-carboxamide], the IC50 in assay [3] (TMD8, 24 h) was 4470 nM; in assay [4] (TMD8, 24 h) it was 3550 nM; in assay [5] (OCI-Ly3, 96 h), 6610 nM; in assay [6] it was 204 nM.
For the compound `N#Cc1cc(NC(=O)c2cnn(-c3ncc(F)cc3Cl)c2C(F)(F)F)cnc1-n1nccn1` [Cpd 106, 1-(3-chloro-5-fluoropyridin-2-yl)-N-(5-cyano-6-(2H-1,2,3-triazol-2-yl)pyridin-3-yl)-5-(trifluoromethyl)-1H-pyrazole-4-carboxamide], the IC50 in assay [3] (setting [7]) amounted to 2290 nM; in assay [4] (setting [7]), 2040 nM; in assay [5] (setting [8]), 2880 nM; in assay [6] it was 251 nM.
Turning to `CN1CCOc2c1cccc2-n1ncc(C(=O)Nc2cnc(-n3nccn3)c(C#N)c2)c1C(F)(F)F` [Cpd 132, N-(5-cyano-6-(2H-1,2,3-triazol-2-yl)pyridin-3-yl)-1-(4-methyl-3,4-dihydro-2H-benzo[b][1,4]oxazin-8-yl)-5-(trifluoromethyl)-1H-pyrazole-4-carboxamide], the IC50 in assay [3] (setting [7]) stood at 550 nM; in assay [4] (setting [7]), 1350 nM; in assay [5] (setting [8]), 1100 nM; in assay [6], 191 nM.
